Test results reported in PMC4884984, “Identification of approved and investigational drugs that inhibit hypoxia-inducible factor-1 signaling” (Oncotarget, 2016).
“Also recorded” adds a separate entry of the source. Like-named read-outs stand apart in the source and are kept apart here. Each block holds one molecule with its values, some of them ahead of it.

Key:
Format in all cases: cell-based, human
[1] = test system: hypoxia response element-beta-lactamase (HRE–bla); experiment: HRE-bla reporter gene assay in ME-180 cells; conditions: for Emax / IC50: Homo sapiens, ME-180; for Emax: read-out: HRE–bla confirmatory Efficacy; for IC50: read-out: HRE–bla confirmatory IC50; for Effect on HRE–bla transcriptional activity, in words: ME-180 cells
[2] = test system: HRE–bla ME-180 cells; experiment: Viability (BLA): CellTiter-Glo counter screen in HRE–bla cells; conditions: Table S7, 1% O2, 18 h
[3] = test system: HIF-1α–NanoLuc; experiment: HIF-1α–NanoLuc reporter gene assay (qHTS primary and confirmatory screens); conditions: for Effect on HIF-1α–NanoLuc level / luciferase activity, in words: HCT116 reporter cells
[4] = Homo sapiens, 18 h, read-out: IC50 (primary screen, HIF-1α–NanoLuc assay)
[5] = Homo sapiens, read-out: Efficacy (primary screen, HIF-1α–NanoLuc assay)
[6] = Homo sapiens, Table S1, primary screen, hypoxia 1% O2, 18 h, read-out: IC50 (primary screen, HIF-1α–NanoLuc assay)
[7] = Homo sapiens, Table S1, primary screen, read-out: Efficacy (primary screen, HIF-1α–NanoLuc assay)
[8] = Homo sapiens, Table S2, validation, read-out: Pathway inhibitors (validation) HIF-1α–NanoLuc Activity Efficacy
[9] = Homo sapiens, Table S2, validation, read-out: Pathway inhibitors (validation) HIF-1α–NanoLuc Activity IC50
[10] = Homo sapiens, Table S2, primary screen, read-out: Pathway inhibitors (primary screen) HIF-1α–NanoLuc Activity Efficacy

SMILES: CC[C@H]1CN2CCc3cc(OC)c(OC)cc3[C@@H]2C[C@@H]1C[C@H]1NCCc2cc(OC)c(OC)cc21 [Emetine]
Emax ([1]; Table S7, confirmatory screen): 91 ± 1%
IC50 ([1]; Table S7, confirmatory screen): 0.29 ± 0.05 µM
Viability (BLA) confirmatory IC50 [2]: Inactive

SMILES: CC(C)C[C@H](NC(=O)[C@H](CCc1ccccc1)NC(=O)CN1CCOCC1)C(=O)N[C@@H](Cc1ccccc1)C(=O)N[C@@H](CC(C)C)C(=O)[C@@]1(C)CO1 [carfilzomib]
Effect on HRE–bla transcriptional activity, in words [1]: inhibited the transcriptional activity of HRE–bla
Effect on HIF-1α–NanoLuc level / luciferase activity, in words [3]: potently induced accumulation of HIF-1α–NanoLuc proteins

SMILES: C=C(C)[C@H]1Cc2c(ccc3c2O[C@@H]2COc4cc(OC)c(OC)cc4[C@@H]2C3=O)O1 [Rotenone]
IC50 [3, 4]: 0.19 µM
Emax [3, 5]: 91%

SMILES: Cc1c(O)cccc1C(=O)N[C@@H](CSc1ccccc1)[C@H](O)CN1C[C@H]2CCCC[C@H]2C[C@H]1C(=O)NC(C)(C)C [Nelfinavir]
IC50 [3, 6]: 21.1 µM
Emax [3, 7]: 120%

SMILES: COc1cccc2c1C(=O)c1c(O)c3c(c(O)c1C2=O)C[C@@](O)(C(=O)CO)C[C@@H]3O[C@H]1C[C@H](N2CCO[C@H](OC)C2)[C@H](O)[C@H](C)O1 [Nemorubicin]
IC50 [3, 4]: 0.08 µM
Emax [3, 5]: 111%

SMILES: Cc1ccc(C(=O)Nc2ccc(S(=O)(=O)O)c3cc(S(=O)(=O)O)cc(S(=O)(=O)O)c23)cc1NC(=O)c1cccc(NC(=O)Nc2cccc(C(=O)Nc3cc(C(=O)Nc4ccc(S(=O)(=O)O)c5cc(S(=O)(=O)O)cc(S(=O)(=O)O)c45)ccc3C)c2)c1 [Suramin]
Emax [3, 8]: 41 ± 7%
IC50 [3, 9]: 24.5 ± 3.13 µM

SMILES: CC(C)C[C@H](NC(=O)[C@H](Cc1ccccc1)NC(=O)c1cnccn1)B(O)O [bortezomib]
Effect on HRE–bla transcriptional activity, in words [1]: inhibited the transcriptional activity of HRE–bla
Effect on HIF-1α–NanoLuc level / luciferase activity, in words [3]: resulted in protein accumulation and increased luciferase activity; also recorded: potently induced accumulation of HIF-1α–NanoLuc proteins

SMILES: COc1cccc2c1C(=O)c1c(O)c3c(c(O)c1C2=O)C[C@@](O)(C(=O)CO)C[C@@H]3O[C@H]1C[C@H](N)[C@H](O[C@@H]2CCCCO2)[C@H](C)O1 [Pirarubicin]
IC50 [3, 6]: 11.9 µM
Emax [3, 7]: 97%

SMILES: COC(=O)C1=C(C)NC(C)=C(C(=O)OCCc2ccc(N3CCN(C(c4ccccc4)c4ccccc4)CC3)cc2)C1c1cccc([N+](=O)[O-])c1 (stereo not shown) [Vatanidipine]
IC50 [3, 6]: 1.19 µM
Emax [3, 7]: 103%

SMILES: Cc1ccc(NC(=O)c2ccc(CN3CCN(C)CC3)cc2)cc1Nc1nccc(-c2cccnc2)n1 [Imatinib]
Emax [3, 10]: 28%

Further lines, with some results ahead:

IC50 ([3]; Table S2, validation, read-out: Pathway inhibitors (validation) HIF-1α–NanoLuc Activity IC50): 1.41 ± 0.23 µM
SMILES: N#Cc1c(Oc2ccc(F)c(NC(=O)Cc3cccc(C(F)(F)F)c3)c2)ccc2nc(NC(=O)C3CC3)sc12 [TAK-632]
Pathway inhibitors (validation) HIF-1α–NanoLuc Activity Efficacy ([3]; Table S2, validation): 85 ± 2%

IC50 ([1]; Table S7, confirmatory screen): 12.8 ± 0.84 µM
SMILES: O=c1c(O)c(-c2ccc(O)c(O)c2)oc2cc(O)cc(O)c12 [Quercetine]
Emax ([1]; Table S7, confirmatory screen): 84 ± 10%
Viability (BLA) confirmatory IC50 [2]: Inactive

IC50 [3, 6]: 0.94 µM
SMILES: COc1ccc2cc3[n+](cc2c1OC)CCc1cc2c(cc1-3)OCO2 [Berberine]
Emax [3, 7]: 116%

IC50 [3, 6]: 11.9 µM
SMILES: COC(=O)C1=C(C)NC(C)=C(C(=O)OC(C)(C)CN(C)CCC(c2ccccc2)c2ccccc2)C1c1cccc([N+](=O)[O-])c1 (stereo not shown) [Lercanidipine]
Emax [3, 7]: 63%

IC50 [3, 6]: 15 µM
SMILES: COCCOC(=O)C1=C(C)NC(C)=C(C(=O)OC(C)C)C1c1cccc([N+](=O)[O-])c1 (stereo not shown) [Nimodipine]
Emax [3, 7]: 132%

IC50 [3, 9]: 6.11 ± 1.64 µM
SMILES: Cn1nccc1Nc1nccc(-c2ccn([C@H](CO)c3ccc(Cl)c(F)c3)c(=O)c2)n1 [GDC-0994]
Emax [3, 8]: 63 ± 7%

IC50 [3, 6]: 8.41 µM
SMILES: O=c1c(-c2ccc(O)cc2)coc2cc(O)cc(O)c12 [Genistein]
Emax [3, 7]: 65%

IC50 [3, 6]: 0.6 µM
SMILES: CC[C@@]1(O)C(=O)OCc2c1cc1n(c2=O)Cc2c-1nc1ccccc1c2/C=N/OC(C)(C)C [Gimatecan]
Emax [3, 7]: 108%
Emax [3, 10]: 108%

HRE–bla confirmatory IC50 ([1]; Table S7, confirmatory screen): Inactive
SMILES: COc1ccccc1N1CCN(CC(O)COc2cccc3ccccc23)CC1 (stereo not shown) [Naftopidil]
Viability (BLA) confirmatory IC50 [2]: Inactive

IC50 ([3]; Homo sapiens, Table S2, primary screen, read-out: Pathway inhibitors (primary screen) HIF-1α–NanoLuc Activity IC50): 15 µM
IC50 [3, 9]: 2.06 ± 3.3 µM
SMILES: Cn1cc(C2=C(c3cn(C4CCN(Cc5ccccn5)CC4)c4ccccc34)C(=O)NC2=O)c2ccccc21 [Enzastaurin]
Emax [3, 10]: 39%
Emax [3, 8]: 67 ± 6%

IC50 [3, 6]: 0.3 µM
SMILES: COc1cccc2c1C(=O)c1c(O)c3c(c(O)c1C2=O)C[C@@](O)(C(=O)CO)C[C@@H]3O[C@H]1C[C@H](N)[C@@H](O)[C@H](C)O1 [Epirubicin]
Emax [3, 7]: 108%
